Assays:
[1] = molecular target: Norepinephrine transporter (Rattus norvegicus, UniProt Q9WTR4); test: Compound has been evaluated for its affinity towards Norepinephrine transporter by displacing the radio isotope [3H]nisoxetine from rat forebrain
[2] = molecular target: Sodium-dependent dopamine transporter (Rattus norvegicus, UniProt P23977); test: Displacement of [3H]GBR-12935 from rat forebrain Dopamine transporter
[3] = molecular target: Sodium-dependent serotonin transporter (Rattus norvegicus, UniProt P31652); test: Affinity for Serotonin transporter by displacing [3H]paroxetine from rat forebrain
Sequence of Sodium-dependent serotonin transporter (P31652 whole entry): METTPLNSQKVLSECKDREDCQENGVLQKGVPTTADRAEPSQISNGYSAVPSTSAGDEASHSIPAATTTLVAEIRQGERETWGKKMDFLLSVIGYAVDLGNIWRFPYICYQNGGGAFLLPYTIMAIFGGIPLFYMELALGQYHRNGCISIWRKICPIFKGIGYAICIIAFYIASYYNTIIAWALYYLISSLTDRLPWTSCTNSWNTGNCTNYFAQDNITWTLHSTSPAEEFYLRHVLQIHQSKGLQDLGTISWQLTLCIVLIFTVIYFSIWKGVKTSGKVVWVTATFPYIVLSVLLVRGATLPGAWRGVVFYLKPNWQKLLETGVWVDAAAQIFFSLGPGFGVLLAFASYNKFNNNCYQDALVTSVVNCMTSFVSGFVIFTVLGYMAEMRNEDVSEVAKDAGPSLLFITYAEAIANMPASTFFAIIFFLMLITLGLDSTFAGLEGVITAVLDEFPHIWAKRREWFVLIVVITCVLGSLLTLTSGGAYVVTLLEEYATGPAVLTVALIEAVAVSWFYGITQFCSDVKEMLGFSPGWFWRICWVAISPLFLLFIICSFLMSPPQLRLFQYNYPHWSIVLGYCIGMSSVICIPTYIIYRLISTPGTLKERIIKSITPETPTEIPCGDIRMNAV

Sequence of Norepinephrine transporter (Q9WTR4 whole entry): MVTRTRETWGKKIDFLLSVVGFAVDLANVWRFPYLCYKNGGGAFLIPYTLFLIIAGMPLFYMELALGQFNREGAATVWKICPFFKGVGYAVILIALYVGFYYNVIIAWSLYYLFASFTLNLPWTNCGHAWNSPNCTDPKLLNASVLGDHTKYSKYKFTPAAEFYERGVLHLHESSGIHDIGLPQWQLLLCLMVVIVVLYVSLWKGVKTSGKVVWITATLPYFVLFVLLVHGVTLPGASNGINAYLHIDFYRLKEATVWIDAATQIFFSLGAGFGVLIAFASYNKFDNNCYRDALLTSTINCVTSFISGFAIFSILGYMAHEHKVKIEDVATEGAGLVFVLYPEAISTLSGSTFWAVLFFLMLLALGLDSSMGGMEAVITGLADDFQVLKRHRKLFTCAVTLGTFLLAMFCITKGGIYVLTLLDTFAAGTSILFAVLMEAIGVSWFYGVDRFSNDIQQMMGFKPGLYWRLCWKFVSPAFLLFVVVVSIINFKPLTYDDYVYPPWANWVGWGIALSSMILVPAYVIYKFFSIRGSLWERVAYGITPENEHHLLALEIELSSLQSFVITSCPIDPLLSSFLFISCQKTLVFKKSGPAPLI
Sequence of Sodium-dependent dopamine transporter (P23977 whole entry): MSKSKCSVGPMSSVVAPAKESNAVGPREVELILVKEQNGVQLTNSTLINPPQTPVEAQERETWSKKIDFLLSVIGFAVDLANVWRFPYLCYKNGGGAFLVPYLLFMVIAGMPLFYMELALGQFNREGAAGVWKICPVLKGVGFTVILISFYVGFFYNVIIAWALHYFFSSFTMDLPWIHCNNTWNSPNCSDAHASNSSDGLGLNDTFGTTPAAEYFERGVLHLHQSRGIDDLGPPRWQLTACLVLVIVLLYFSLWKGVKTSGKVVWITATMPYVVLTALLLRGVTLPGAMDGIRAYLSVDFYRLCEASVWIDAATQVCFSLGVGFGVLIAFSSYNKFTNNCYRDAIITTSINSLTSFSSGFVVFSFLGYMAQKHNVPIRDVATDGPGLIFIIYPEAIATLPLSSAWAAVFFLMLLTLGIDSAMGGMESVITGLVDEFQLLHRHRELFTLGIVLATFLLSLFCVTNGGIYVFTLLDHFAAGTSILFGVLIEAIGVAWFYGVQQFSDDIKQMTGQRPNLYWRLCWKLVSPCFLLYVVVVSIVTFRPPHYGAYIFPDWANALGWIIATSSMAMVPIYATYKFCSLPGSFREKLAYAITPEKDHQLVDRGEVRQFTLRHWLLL

| Structure (SMILES) | Ki [1] [nM] | Ki [2] [nM] | Ki [3] [nM] |
| --- | --- | --- | --- |
| COC(=O)C1C(c2ccc(-c3ccc(C(C)=O)cc3)cc2)CC2CCC1N2C (centres undefined) | 754 | – | – |
| COC(=O)C1C(c2ccc(-c3ccccc3C(C)=O)cc2)CC2CCC1N2C (centres undefined) | > 20000 | – | – |
| COC(=O)C1C(c2ccc(-c3cccc(C(C)=O)c3)cc2)CC2CCC1N2C (centres undefined) | > 50000 | – | – |
| COC(=O)[C@@H]1C2CC[C@H](C[C@@H]1c1ccc(I)cc1)N2C | 2.8 | 0.96 | 0.46 |
| COC(=O)C1C(c2ccc(-c3ccccc3[N+](=O)[O-])cc2)CC2CCC1N2C (centres undefined) | > 3000 | > 3000 | > 3000 |
| COC(=O)C1C(c2ccc(-c3ccc([N+](=O)[O-])cc3)cc2)CC2CCC1N2C (centres undefined) | 370 | – | – |
| COC(=O)C1C(c2ccc(-c3ccccc3OC)cc2)CC2CCC1N2C (centres undefined) | 10000 | – | – |
| COC(=O)C1C(c2ccc(-c3cccc(OC)c3)cc2)CC2CCC1N2C (centres undefined) | > 3000 | – | – |
| COC(=O)C1C(c2ccc(-c3ccc(OC)cc3)cc2)CC2CCC1N2C (centres undefined) | 352 | – | – |
| COC(=O)C1C(c2ccc(-c3cccc([N+](=O)[O-])c3)cc2)CC2CCC1N2C (centres undefined) | 963 | – | – |
